Results published in US20030207854A1, “Antiprogestins with partial agonist activity” (priority 2002, published 2003).
Like-named read-outs stand apart in the source and are kept apart here.

Assays:
human PR-B = target: T1, human PR-B (Homo sapiens, UniProt P06401); test: PR-B transactivation of MMTVLuc reporter in transiently transfected 1470.2 cells; type: cell-based; details: for EC50: read-out: EC50 from dose-response curves
T1 construct: expressed in transfected cells; host or cells: 1470.2 mouse mammary adenocarcinoma cells
T1 sequence (P06401 1-933): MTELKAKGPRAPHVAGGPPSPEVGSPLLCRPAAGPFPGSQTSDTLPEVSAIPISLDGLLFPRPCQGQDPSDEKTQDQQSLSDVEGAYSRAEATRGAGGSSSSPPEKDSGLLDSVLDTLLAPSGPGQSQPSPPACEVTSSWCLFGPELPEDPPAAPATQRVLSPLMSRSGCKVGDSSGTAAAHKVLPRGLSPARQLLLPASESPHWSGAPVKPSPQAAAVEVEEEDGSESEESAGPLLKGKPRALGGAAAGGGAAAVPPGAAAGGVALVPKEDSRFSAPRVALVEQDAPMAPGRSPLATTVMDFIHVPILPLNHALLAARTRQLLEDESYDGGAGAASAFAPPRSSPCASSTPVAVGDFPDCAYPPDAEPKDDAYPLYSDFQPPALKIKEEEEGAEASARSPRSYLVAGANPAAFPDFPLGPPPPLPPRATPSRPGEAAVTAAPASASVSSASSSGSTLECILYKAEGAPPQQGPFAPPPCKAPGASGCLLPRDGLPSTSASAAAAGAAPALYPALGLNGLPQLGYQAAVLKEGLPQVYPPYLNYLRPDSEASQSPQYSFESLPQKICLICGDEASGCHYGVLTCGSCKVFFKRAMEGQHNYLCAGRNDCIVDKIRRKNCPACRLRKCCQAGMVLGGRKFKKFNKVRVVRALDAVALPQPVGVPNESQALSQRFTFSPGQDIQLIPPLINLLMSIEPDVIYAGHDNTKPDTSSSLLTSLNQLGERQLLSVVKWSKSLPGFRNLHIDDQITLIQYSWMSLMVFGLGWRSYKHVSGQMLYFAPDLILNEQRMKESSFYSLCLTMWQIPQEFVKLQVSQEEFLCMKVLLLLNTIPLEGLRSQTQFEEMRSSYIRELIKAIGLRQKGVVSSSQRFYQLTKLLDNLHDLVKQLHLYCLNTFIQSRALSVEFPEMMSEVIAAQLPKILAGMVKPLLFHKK
Text: All data were normalized for Renilla expression. […] The error bars represent the SD of triplicate plates.
All data were normalized for protein levels in the cell lysates. […] The error bars represent the SD of triplicate plates.
All data were normalized for Renilla expression.

PR [1] = target: T2, PR (Homo sapiens, UniProt P06401)
T2 sequence (P06401 1-933): T1 sequence (P06401 1-933)
Text: The absolute levels of luciferase activity (±S.D. of triplicate values) were plotted.

PR [2] = target: T2, PR; type: cell-based; parameters: expressed in transfected cells; host or cells: CV-1 cells
Experimental: Cell culture and transfection: Monolayer cultures of COS-7 cells were grown at 37° C. with 5% CO2 in Dulbecco's modified Eagle's medium (DMEM; GIBCO/BRL Life Technologies, Inc.) supplemented with 5% of fetal bovine serum, respectively. The 1470.2 mouse mammary adenocarcinoma cells (Pennie et al., Mol Cell Biol 15:2125-2134, 1995) were grown in DMEM with 4.5 g glucose/L (Quality Biologicals, Inc.) whereas T47D cells were grown in Dulbecco's modified Eagle's medium with high glucose (4.5 g/L, 2 mM glutamine, and 60 ng/ml insulin), both with 10% of fetal bovine serum. The 1470.2 cells were transiently transfected with the human PR-B construct, 1 μg of MMTVLuc, and 50 ng Renilla null luciferase, with the total transfected DNA brought up to 3 μg/60 mm dish with pBSK^+DNA, using the calcium phosphate method as previously described (Szapary et al., J Biol Chem 271:30576-30582, 1996). Following 24 h of steroid treatment, the cells were harvested in 1× Passive Lysis Buffer (0.5 ml/dish; Promega, Madison, Wis.). Twenty μl of the cell lysates were used to assay for luciferase activity using the Dual-Luciferase Assay System from Promega (Madison, Wis.) and the methods recommended by the supplier. […]

[3] = 1470.2 cells, transfected human PR-B, MMTVLuc reporter

SMILES	partial progestin activity with added PR (human PR-B; 1470.2 cells, 3 or 30 ng PR-B plasmid, 1 μM steroid, FIG. 5B)	EC50 (human PR-B; [3]) [µM]	antiprogestin activity: inhibition of the action of 300 pM R5020 (PR [1]; 1 μM and 10 μM Dex-Mes, 1 μM Dex-Ox, FIG. 7)	agonist activity in CV-1 cells (PR [2]; CV-1 cells)	partial progestin activity with added PR (human PR-B)	EC50 (human PR-B) [µM]	antiprogestin activity: inhibition of the action of 300 pM R5020 (PR [1])	agonist activity in CV-1 cells (PR [2])
C[C@@H]1C[C@H]2[C@@H]3CCC4=CC(=O)C=C[C@]4(C)[C@@]3(F)[C@@H](O)C[C@]2(C)[C@@]1(O)C(=O)COS(C)(=O)=O [Dex-Mes, dexamethasone 21-mesylate]	significant amounts of partial progestin activity	~0.35	reduced the activity of 300 pM R5020 to that of the competing steroid alone	much more agonist activity than either RIT 3021-020 or RU 486	–	–	–	–
C[C@@H]1C[C@H]2[C@@H]3CCC4=CC(=O)C=C[C@]4(C)[C@@]3(F)[C@@H](O)C[C@]2(C)[C@]12OCC2=O [Dex-Ox, dexamethasone oxetanone]	–	–	–	–	significant amounts of partial progestin activity	~0.03	reduced the activity of 300 pM R5020 to that of the competing steroid alone	much more agonist activity than either RIT 3021-020 or RU 486
CCC(=O)[C@@]1(C)CC[C@H]2[C@@H]3CCC4=CC(=O)CCC4=C3CC[C@@]21C [R5020, promegestone, reference compound]	–	0.0004	–	–	–	–	–	–
